Some test systems named below: SW-620; EKVX; SK-MEL-5; NCI/ADR-RES; A498; BT-549; MDA-MB-435; ACHN; MDA-MB-231; KM12; PC-3; HCT-15; M14; UACC-62; SF-295; HOP-62; HCC 2998; TK-10; CAKI-1.
Assay in all cases: growth of human tumour cells (NCI), 48 h

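Test compounds were applied to cells in 96-well plates for 48 hours at 5 doses. Here, GI50 denotes the concentration required for 50% inhibition of growth.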 Calls of active or inactive are those of the source. Cut-off read from the data, not from the text of the source: active = GI50 up to about 1.1 µM and inactive = higher.

On to `CCc1nc(N)nc(N)c1-c1ccc(Cl)cc1` [PYRIMETHAMINE], for which the GI50 in the assay with SW-620 was 5.61 µM (inactive); in the assay with EKVX, 7.55 µM (inactive); in the assay on SK-MEL-5, 2.48 µM (inactive); with NCI/ADR-RES, 30.9 µM (inactive); in the assay with A498, 13.3 µM (inactive); in the assay with BT-549, 25.8 µM (inactive). For the same compound, the GI50 in the assay on MDA-MB-435 was 8.36 µM (inactive); in the assay with ACHN, 5.11 µM (inactive); in the assay with MDA-MB-231, 9.25 µM (inactive); with KM12, 11.6 µM (inactive); in the assay on PC-3 it was 6.5 µM (inactive); in the assay on HCT-15 it was 3.94 µM. Moreover, the GI50 is 5.71 µM (inactive) in the assay with M14; 4.72 µM (inactive) with UACC-62; 4.44 µM (inactive) in the assay on SF-295; 13.4 µM (inactive) in the assay with HOP-62; 6.25 µM (inactive) in the assay on HCC 2998; 21.7 µM (inactive) in the assay on TK-10. In addition, the GI50 with CAKI-1 is 71.9 µM (inactive).

As to `Cc1c2ccccc2c(/C=N/NC(=O)CSCC(=O)N/N=C/c2c3ccccc3c(C)c3ccccc23)c2ccccc12`, the GI50 in the assay with SW-620 is > 57.4 µM (inactive); with EKVX, > 59 µM (inactive); with SK-MEL-5 it was 54.7 µM (inactive); in the assay on NCI/ADR-RES, > 63.5 µM (inactive); with A498, 21.7 µM (inactive); in the assay with BT-549, 40.7 µM (inactive). In addition, the GI50 with MDA-MB-435 is > 79.6 µM (inactive); in the assay with ACHN, > 47.8 µM (inactive); with MDA-MB-231, 31.2 µM (inactive); in the assay with KM12, > 56.4 µM (inactive); in the assay on PC-3 it was > 31.4 µM (inactive); in the assay with HCT-15, above 100 µM. Moreover, the GI50 in the assay on M14 is > 52.5 µM (inactive); in the assay with UACC-62, > 64.7 µM (inactive); in the assay on SF-295, 16 µM (inactive); with HOP-62, 12.9 µM (inactive); with HCC 2998, 18.3 µM (inactive); in the assay with TK-10, 29 µM (inactive). Moreover, the GI50 with CAKI-1 is > 67.1 µM (inactive).

In the case of `CCN1CCCn2c(=O)[nH]c3cc(Br)cc1c32`, the GI50 was > 100 µM (inactive) with SW-620; 0.706 µM (active) with EKVX; > 100 µM (inactive) with SK-MEL-5; > 100 µM (inactive) with NCI/ADR-RES; 15.1 µM (inactive) in the assay with A498; 14.6 µM (inactive) in the assay with BT-549. In addition, the GI50 in the assay on MDA-MB-435 is > 100 µM (inactive); in the assay on ACHN it was > 100 µM (inactive); in the assay with MDA-MB-231, 38.4 µM (inactive); with KM12, > 100 µM (inactive); in the assay with PC-3, > 100 µM (inactive); in the assay on HCT-15 it was above 100 µM. The GI50 is > 100 µM (inactive) in the assay with M14; 69.8 µM (inactive) in the assay on UACC-62; 35.1 µM (inactive) in the assay on SF-295; 25.5 µM (inactive) in the assay with HOP-62; > 100 µM (inactive) in the assay on HCC 2998; 51.6 µM (inactive) with TK-10. The GI50 in the assay with CAKI-1 is > 100 µM (inactive).

Take `C=CCOC1(CC=C)C(=O)OC2C(O)COC21O` (configuration not stated): the GI50 in the assay with SW-620, with EKVX, in the assay on SK-MEL-5, in the assay with NCI/ADR-RES, in the assay on A498 and in the assay on BT-549 was > 100 µM (inactive) in each case. Also, the GI50 in the assay with MDA-MB-435 is > 100 µM (inactive); in the assay on ACHN it was > 100 µM (inactive); with MDA-MB-231, > 100 µM (inactive); in the assay with KM12, > 100 µM (inactive); in the assay on PC-3, > 100 µM (inactive); in the assay on HCT-15 it was above 100 µM. Besides, the GI50 with M14, in the assay with UACC-62, in the assay with SF-295, with HOP-62, in the assay with HCC 2998 and in the assay on TK-10 was > 100 µM (inactive) throughout. Besides, in the assay with CAKI-1, the GI50 was > 100 µM (inactive).

As to `CC(C)CCC[C@@H](C)[C@H]1CC[C@H]2[C@@H]3CC[C@H]4C[C@@H](CCC=C(c5cc(Cl)c(O)c(C(=O)O)c5)c5cc(Cl)c(O)c(C(=O)O)c5)CC[C@]4(C)[C@H]3CC[C@]12C`, the GI50 with SW-620, with EKVX, in the assay on SK-MEL-5, in the assay on NCI/ADR-RES, with A498 and with BT-549 was > 100 µM (inactive) each time. Further, the GI50 in the assay with MDA-MB-435 was > 100 µM (inactive); in the assay with ACHN, > 100 µM (inactive); with MDA-MB-231, > 100 µM (inactive); in the assay on KM12, > 100 µM (inactive); in the assay with PC-3 it was > 100 µM (inactive); in the assay with HCT-15, above 100 µM. Also, the GI50 in the assay on M14, in the assay with UACC-62, with SF-295, in the assay with HOP-62, in the assay with HCC 2998 and with TK-10 was > 100 µM (inactive) in each case. For the same compound, in the assay on CAKI-1, the GI50 was > 100 µM (inactive).

For the compound `CNC1=CC(=O)C2=C(C1=O)[C@H]1CC[C@]3(C)C(=O)CC[C@H]3[C@@H]1CC2`, the GI50 in the assay on SW-620 was 22.9 µM (inactive); with EKVX, 15.3 µM (inactive); in the assay with SK-MEL-5, 8.18 µM (inactive); with NCI/ADR-RES, 13 µM (inactive); in the assay with A498 it was 22.2 µM (inactive); with BT-549, 16.4 µM (inactive). Moreover, the GI50 was 5.66 µM (inactive) in the assay with MDA-MB-435; 21.6 µM (inactive) in the assay on ACHN; 24.5 µM (inactive) in the assay with MDA-MB-231; 7.43 µM (inactive) with KM12; 13.1 µM (inactive) with PC-3; 12.4 µM in the assay with HCT-15. The GI50 in the assay with M14 is 13.5 µM (inactive); with UACC-62, 14 µM (inactive); in the assay with SF-295, 15.3 µM (inactive); with HOP-62, 15.2 µM (inactive); with HCC 2998, 16 µM (inactive); in the assay on TK-10 it was 62.4 µM (inactive). In addition, in the assay on CAKI-1, the GI50 is 13.6 µM (inactive).

On to `N#Cc1nc(Sc2cnsn2)c(Sc2cnsn2)nc1C#N`, for which the GI50 was 2.25 µM (inactive) with SW-620; 10.4 µM (inactive) in the assay on EKVX; 14.9 µM (inactive) in the assay on SK-MEL-5; 22.8 µM (inactive) in the assay with NCI/ADR-RES; 21.8 µM (inactive) with A498; 21.4 µM (inactive) in the assay with BT-549. In addition, the GI50 in the assay on MDA-MB-435 was 11.5 µM (inactive); in the assay with ACHN it was 7.1 µM (inactive); with MDA-MB-231, 23.9 µM (inactive); with KM12, 20.7 µM (inactive); with PC-3 it was 21.6 µM (inactive); with HCT-15, 6.68 µM. Further, the GI50 with M14 was 20.4 µM (inactive); with UACC-62 it was 17.6 µM (inactive); in the assay with SF-295 it was 16.6 µM (inactive); in the assay with HOP-62 it was 18.7 µM (inactive); in the assay with HCC 2998, 18.7 µM (inactive); in the assay with TK-10, 5.12 µM (inactive). Also, in the assay on CAKI-1, the GI50 was 6.47 µM (inactive).

Turning to `Cc1cc(S(=O)(=O)Nc2nc(N)n(C)n2)c(S)cc1Cl`, the GI50 in the assay with SW-620, with EKVX, in the assay on SK-MEL-5, with NCI/ADR-RES, in the assay on A498 and in the assay with BT-549 was > 10 µM (inactive) in each case. Besides, the GI50 with MDA-MB-435 was > 10 µM (inactive); in the assay on ACHN, > 10 µM (inactive); with MDA-MB-231, > 10 µM (inactive); with KM12 it was > 10 µM (inactive); in the assay with PC-3 it was > 10 µM (inactive); in the assay with HCT-15, above 10 µM. In addition, the GI50 in the assay with M14, with UACC-62, in the assay on SF-295, in the assay with HOP-62, in the assay on HCC 2998 and with TK-10 was > 10 µM (inactive) throughout. Also, the GI50 in the assay with CAKI-1 is > 10 µM (inactive).

Values taken from ChEMBL document CHEMBL1201862, “PubChem BioAssay data set” (2004).
